Laboratory results from US8603999B2, “Amphiphile prodrugs” (Commonwealth Scientific and Industrial Research Organisation, priority 2008, dated 2013).

Assays:
[1] = Thermal decomposition by TGA; type: physicochemical; settings: neat prodrug
4T1 tumour = test: Second 4T1 tumour study, daily dosing for 17 days (Example 7)
Source text: Also, the dosage of both compounds was increased to 1.5 mmol for each treatment.

[2] = Lyotropic phase behaviour: water penetration scans, SAXS and XRD; type: physicochemical; settings: for lyotropic phase behaviour in water penetration scans: concentration gradient from neat amphiphile to pure water, heated from room temperature; for Lyotropic phase behaviour: particle form in water at physiological temperature; for d-spacing: Lc
Source text: Lyotropic mesophase behaviour was studied using water penetration experiments. Neat amphiphile was placed on a glass slide, melted and cooled to facilitate sample homogenization and then covered with a glass cover slip. A few drops of Milli-Q water were then introduced to the edge of the cover slip which was drawn in by capillary action resulting in a concentration gradient from pure amphiphile in the centre to pure water around the edges of the cover slip. The generated mesophases were identified by their characteristic birefringent textures. Samples were then heated at 2° C./min from room temperature to ˜99° C. using an FP90 Linkam hotstage (Linkam Scientific Instruments, England). Thermotropic phase behaviour was also examined in the similar method but in the absence of water. The phases were viewed using an Olympus GX51 inverted polarising microscope (Olympus Australia Pty. Ltd, Australia) equipped with an Olympus C-5060 digital camera for image capture. All images were taken with 100× magnification unless elsewhere stated. […] The bulk phase of the binary amphiphile/water system was prepared by weighing the appropriate amount of sample and water in a sample vial. For those samples requiring pre-treatment, the samples were quickly melted in a pre-heated temperature controlled silicon-oil heating bath prior to addition of water. […] The prepared samples were analysed using an Anton-Paar SAXSess (Graz, Austria) with PANalytical PW3830 stand-alone X-ray generator operating at 40 kv, 50 mA with a sealed-tube Cu anode (λCu—Kα=0.154 nm). The samples were loaded into a paste cell sample holder at room temperature. […] Temperature control was via a TCU Temperature Control Unit (Anton Paar). […] The scattering results were recorded and analysed by the accompanied Anton Paar software.

[3] = Particle size distribution of dispersions by dynamic light scattering; type: physicochemical; settings: for mean (average) particle size / particle size distribution: DLS at 25° C., 5-FCPhy and 5-FCOle after membrane extrusion, 5-FCPal solid lipid particles; for Average Particle size: dispersions used in the hydrolysis study, physiological temperature
Method: BASF) equivalent to 10% (w/w) of neat amphiphile and absolute ethanol were weighed in a sample vial. […] These crude dispersions were then passed through a series of PC membranes from the size range from 1 um to 100 nm to obtain a more uniform size distribution for the particles. The equipment used for size control is a mini-extruder (Avanti Polar Lipids, USA). […] The final concentration of colloidosomes were determined by ultra performance liquid chromatography (UPLC) and then diluted to 1 mg/mL for use in the enzyme hydrolysis study The particle size distribution and morphology of the above suspensions were determined using the method as described herein by using zetasizer and cryo-TEM characterisation methods. Solid lipid particles of prodrug 5-FCPal were prepared using mechanical methods. […] The melted prodrug and poloxamer mixture was then transferred to 40 mL of pre-warmed water upon vigorous vortexing. The mixture was then sheared with a rough homogenizer (Ultra Turrax®, T18 Basic, IKA® Werke GmbH & Co. KG, Germany) at 14,000 rpm for 10 min. The resultant dispersion was further transferred to the ultrasonic benchtop cleaner for a few hours of ultra sonication. […] Determination of the particle size distribution of the colloidosome and solid lipid particle dispersions were carried out using a Zetasizer (nano zs, Malvern, England) equipped with a He—Ne Laser (4 mw, 633 nm) and an avalanche photodiode detector. […] […] The size distribution was recorded by intensity.

[4] = tested on: Carboxylesterase from porcine liver; test: Hydrolysis of prodrugs by porcine liver carboxylesterase (CES), LC/MS; settings: for SA relative to 5-FCPal: CES hydrolysis
Method: High purity Capecitabine (as solid crystals) was purchased from Xingcheng Chemphar Co., Ltd, P.R.China. […] Millipore water was used to prepare the prodrugs solutions with appropriate concentrations, while phosphate buffered saline (pH 7.4, PBS) was used in the preparation of different concentrations of enzyme.
Stock solution of Capecitabine was prepared by dissolving pure white Capecitabine into warm water. 1 mg/mL of Capecitabine solution was then further obtained by diluting the stock solution with milli-Q water. […] Prior to the experiments, prodrug particles were incubated at 37° C. for at least two weeks to achieve the equilibrium state of certain phases.
Stock solution of 10 mg/mL carboxylesterase solution was prepared by weighting 10 mg of powder enzyme in 1 mL of PBS buffer and shaking gently by hand. The concentration of the enzyme solution was adjusted to 1 mg/mL and 0.01 mg/mL by dilution of the stock solution. These solutions were used for the enzymatic hydrolysis of the prodrugs and Capecitabine respectively. […]
To measure the rate of the enzymatic reaction precisely, the starting substrate and the enzyme solution were mixed for a defined time by rapidly mixing together the two stock solutions and shaking. The time at which enzyme solution was added was taken as time zero for the hydrolysis reaction. The mixture was maintained at 37° C. throughout the experiment. The concentration of the hydrolysis product was then measured at various times using LC/MS (Finnigan LCQ Series, Thermo Scientific, USA). The time at which the sample was injected into the LC column was taken to be the reaction time for such sample. The hydrolysis progress curve showing the decrease in the concentration of original substrate was subsequently plotted.
The concentrations of prodrugs were determined using Thermo Finnigan LC/MS equipped with an atmospheric pressure chemical ionization (APCI) probe in positive ion mode. 10 μL of sample withdrawn from the reaction solution was injected directly into a Platinum EPS C18 100 Å 5u LC column with the length of 150 mm and internal diameter of 4.6 mm (Alltech, Australia). A mixture of 30% LCMS grade water and 70% Methanol was employed as mobile phase with the flow rate of 1 ml/min. The sample after the column separation was eluted to APCI source (MS full positive scan) to determine the molecular weight of the substrates. The vaporizer temperature of the APCI probe was set at 450° C. and the capillary temperature was operated at 200° C. The sample temperature was well maintained at 37° C. during the entire measurement by incubating the sample in the temperature controlled auto-sampler. Data were acquired and processed with Xcalibur Quan chromatography software.
The decreased concentration of substrate and the increased hydrolysis product 5′-dFCyd were detected based on the different retention time on chromatogram and m/z value in the MS positive scan. […] The decreased/increased ratio of reactant/5′dFCyd was determined by comparing the integration areas of the corresponding peaks.
The enzyme hydrolysis reaction was plotted as the logarithm of the ratio of original prodrug concentration to the decreased concentration of prodrug at a certain incubation time as a function of reaction time (Ln [S]0/[S] vs T).
In order to compare the enzymatic activity for each individual substrate to CES, we calculate a global reaction rate expressed as a specific activity (SA) (μmol/min/mg enzyme): SA=Δ[S]/(Δt·[CCES])
Here, as is common when discussing the SA, [CCES] is the enzyme concentration in mg/ml, Δ[S] is the substrate concentration change in μmol/ml during Δt time.

[5] = tested on: 4T1 cells (mouse breast cancer cells); test: 4T1 mouse breast tumour in BALB/c mice, oral daily dosing for 21 days (Example 6); type: in vivo
Method: 90 female BALB/c were injected with 5×10^4 4T1 cells (mouse breast cancer cells) in the second mammary fat pad on the right hand side. The tumour was allowed to form for 6 days prior to drug administration. On day 6, tumours were palpable in most of the mice. […] Mice were placed into groups of 6, and 15 different treatments were administered orally on a daily basis for 21 days.
The length and breadth of the tumours were measured and recorded on day 1, 4, 7, 14, and 21 of the drug administration. On Day 22, mice were euthanized. Blood was collected via cardiac puncture, followed by removal of the tumour, liver, spleen and kidney for histological analysis. Lungs were injected with indium ink prior to removal to allow for quantification of the number of lung metastasis in each animal.

[6] = in excess water with 2.3% F127 and 4.87% Ethanol, SAXS, 37° C.
[7] = in excess water, RT (25° C.), SAXS
[8] = porcine liver CES, 37° C., enzyme 0.5 mg/mL for prodrugs
[9] = porcine liver CES, 37° C., enzyme 0.5 mg/mL for prodrugs, 0.005 mg/ml for Capecitabine

Compound | temperature at which decomposition starts (TGA) [1] | Lyotropic phase behaviour [2] | mean (average) particle size [3] | Average Particle size [3] | Specific Activity (SA) at time t = 1 h [4, 9] | Specific Activity (SA) at time t = 2 h [4, 9] | Specific Activity (SA) at time t = 6 h [4, 9] | Specific Activity (SA) at time t = 24 h [4, 8] | tumours from animals sacrificed at 17 days (images) (4T1 tumour; FIG. 19) | lyotropic phase behaviour in water penetration scans [2] | Lattice parameter ([2]; in excess water, 37° C., SAXS) | Lattice parameter [2, 7] | particle size distribution [3] | SA relative to 5-FCPal [4] | Specific Activity (SA) at time t = 12 h [4, 8] | phase in excess water ([2]; physiological temperatures) | other results
CCCCCCCC/C=C\CCCCCCCCOC(=O)Nc1nc(=O)n(C2OC(C)C(O)C2O)cc1F (stereo not drawn) [Prodrug 5-FCOle, 5′-deoxy-5-fluoro-N^4-(cis-9-octadecenyl-1-oxycarbonyl)cytidine] | 123 °C | Cubosome | 255 nm | 261 nm | 4.97 µmol/min/mg | 3.7 µmol/min/mg | 2.24 µmol/min/mg | – | significantly smaller tumours | traditional lamellar (L[…]) phase at room temperature and 3D cubic (Pn3m) phase at elevated temperatures above 33 °C | 37 °C Pn3m: 10.40 nm | 25 °C Lα: 6.01 nm | 150-500 nm | ~10 times | 2.37 | – | average 4T1 tumour volume by day 17 (4T1 tumour; 1.5 mmol for each treatment, daily for 17 days): significantly smaller tumour volumes; spleens from animals sacrificed at 17 days (images) (4T1 tumour; FIG. 19): normal spleens; time for tumours to reach a similar size as the other treatment groups after treatment was stopped (4T1 tumour; treatment stopped on day 17): a full week; Lattice parameter [2, 6]: 37 °C Pn3m: 9.10 nm; Phases [2, 6]: Pn3m; Phases ([2]; in excess water, 37° C., SAXS): 37 °C Pn3m; Phases [2, 7]: RT: Lα; Phases ([2]; neat, SAXS, 25, 37° C.): Smectic; Lattice parameter ([2]; neat, SAXS, 25° C.): 25° C.: 2.99 nm; Lattice parameter ([2]; neat, SAXS, 37° C.): 37° C.: 3.00 nm; Lattice parameter ([2]; neat, XRD, 25° C.): 2.977 nm; Phases ([2]; neat, XRD, 25° C.): Smectic
5′-deoxy-5-fluoro-N^4-(octadecyl-1-oxycarbonyl)cytidine [Prodrug 5-FCSte] | – | – | – | – | – | – | – | – | – | – | – | – | – | – | – | lamellar phases | –
5′-deoxy-5-fluoro-N^4-(cis-9,cis-12-octadecenyl-1-oxycarbonyl)cytidine [Prodrug 5-FCLeo] | – | – | – | – | – | – | – | – | – | – | – | – | – | – | – | fluid isotropic phase | phase at limited hydration ([2]; limited hydration, physiological temperatures): inverse phases

Second part, led by results:

temperature at which decomposition starts (TGA) [1] | Lyotropic phase behaviour [2] | mean (average) particle size [3] | Average Particle size [3] | Specific Activity (SA) at time t = 1 h [4, 9] | Specific Activity (SA) at time t = 2 h [4, 9] | Specific Activity (SA) at time t = 6 h [4, 9] | Specific Activity (SA) at time t = 24 h [4, 8] | Compound | tumours from animals sacrificed at 17 days (images) (4T1 tumour; FIG. 19) | lyotropic phase behaviour in water penetration scans [2] | Lattice parameter ([2]; in excess water, 37° C., SAXS) | Lattice parameter [2, 7] | particle size distribution [3] | SA relative to 5-FCPal [4] | Specific Activity (SA) at time t = 12 h [4, 8] | phase in excess water ([2]; physiological temperatures) | other results
approximately 120 °C | Solid lipid | 700 nm | 661 nm | 0.3 µmol/min/mg | 0.38 µmol/min/mg | 0.33 µmol/min/mg | 0.27 µmol/mL | CCCCCCCCCCCCCCCCOC(=O)Nc1nc(=O)n([C@@H]2O[C@H](C)[C@@H](O)[C@H]2O)cc1F [Prodrug 5-FCPal, 5′-deoxy-5-fluoro-N^4-(hexadecyl-1-oxycarbonyl)cytidine] | – | did not swell | – | – | – | – | – | – | Phases ([2]; in excess water, equilibration @ RT 7 Days, RT, 37, 50° C.): Lamellar; d-spacing ([2]; in excess water, equilibration @ RT 7 Days, RT): (2.86 nm); Phases ([2]; without water, RT, 37, 50, 70, 90° C., SAXS confirmed with XRD): Lamellar; d-spacing ([2]; without water, RT): (2.87 nm); time over which hydrolysis continued towards full conversion ([4]; CES 0.5 mg/mL, 37° C.): more than 7 days
95 °C | Hexosome | 164 nm | 219 nm | 1.03 µmol/min/mg | 1.3 µmol/min/mg | 0.67 µmol/min/mg | 1.15 µmol/min/mg | 5′-deoxy-5-fluoro-N^4-(3,7,11,15-tetramethyl-hexadecyl-1-oxycarbonyl)cytidine [Prodrug 5-FCPhy] | significantly smaller tumours | 3D inversed bicontinous cubic phase (Pn3m space group) initially and then transform to 2D hexagonal phase | 5.60 nm | RT: H2(5.82 nm) | 100-300 nm | about 4 times | 0.89 µmol/min/mg | – | overall tumour volume at day 21 ([5]; 4T1 tumour, oral daily, day 21): second smallest overall tumour volume; behaviour and appearance of the treated mice ([5]; 4T1 tumour-bearing BALB/c mice, oral daily for 21 days): active and healthy; spleens from animals sacrificed at 17 days (images) (4T1 tumour; mouse, in vivo): normal spleens; Phases ([2]; without water, RT, 37° C., equilibrated): Amorphous
– | – | – | – | 733 µmol/min/mg | 717 µmol/min/mg | 598 µmol/min/mg | – | CCCCCOC(=O)Nc1nc(=O)n([C@@H]2O[C@H](C)[C@@H](O)[C@H]2O)cc1F [Capecitabine, reference compound] | – | – | – | – | – | – | – | – | time to hydrolysis to 5-FC ([4]; 5 mg/ml and 0.5 mg/ml enzyme concentration): ≤ 30 min; enzyme activities (SA) ([4]; obtained from three enzymatic concentrations): 600-900 μmol/min/mg enzyme; Specific Activity (SA) at time t = 0.5 h [4, 9]: 933 µmol/min/mg
